Results on 6 compounds are retold here after patent US4230854A, “Analogues of ergot alkaloids” (Societa Farmaceutici Italia S.p.A., priority 1977, dated 1980).

Each structure is given as a SMILES string.

Data set [1] concerns lethal effect of 0.2 mg/Kg epinephrine. Put plainly: adrenergic blockade in vivo: receptor blockade in rats, protection from the lethal effect of epinephrine. Particulars: Rattus norvegicus, iv, 5 min, dose protecting 50% of animals from the lethal effect of 0.2 mg/Kg epinephrine injected i.v. 5 min later, estimated graphically. On the procedure: (b) receptor blockade was determined in rats according to Luduena F.P. et
al. (Arch. Int. Pharmacodyn CXXII, 111, 1959). ED50 is the
graphically estimated dose of antagonist protecting 50% of animals from
the lethal effect of 0.2 mg/Kg epinephrine, injected i.v. 5 min later.

Data set [2] relates to spasmogenic effect of epinephrine on the isolated guineapig seminal vescicle. Put plainly: adrenergic blockade in vitro: receptor blockade against the spasmogenic effect of epinephrine on the isolated guineapig seminal vescicle. Format: biochemical. Particulars: concentration producing 50% inhibition of the effect of epinephrine, estimated graphically. On the procedure: (a) receptors blockade was determined against the spasmogenic effect of
epinephrine on the isolated guineapig seminal vescicle according to
Brugger J. (Helv.Physiol. Acta 3, 117, 1945). Concentration producing 50%
inhibition of the effect of the agonist were estimated graphically for […]

Data set [3] can be described thus: acute toxicity (LD50) in mice. The note with it: mouse, in vivo, iv, standard procedure. The protocol: (c) LD50 was determined in mice according to the standard procedure.

Usually ED50 stands for the midpoint of the dose-response relation. Broadly, the LD50 is the dose expected to kill half of the subjects tested. A low value points to greater toxicity. With `CN1C[C@H](C(=O)N[C@]2(C)O[C@@]3(O)[C@@H]4CCCN4C(=O)[C@H](Cc4ccccc4)N3C2=O)C=C2c3cccc4[nH]cc(c34)C[C@H]21` [Ergotamine, reference compound], the ED50 in data set [1] is 0.2 mg/kg. Further, in data set [2], the “adrenergic blockade In vitro IC50” value was 0.07 µg/mL. Moreover, the 50% lethal dose (LD50) in data set [3] was determined as 70 mg/kg.
Take `CC(C)[C@@]1(NC(=O)[C@@H]2C[C@@H]3c4cccc5[nH]cc(c45)C[C@H]3N(C)C2)O[C@@]2(O)[C@@H]3CCCN3C(=O)[C@H](Cc3ccccc3)N2C1=O` [Dihydroergocristine, reference compound]: the ED50 in data set [1] is 0.03 mg/kg. Moreover, the LD50 in data set [3] was determined as 174 mg/kg.
Turning to `CN1C[C@H](C(=O)N[C@]2(C)O[C@@]3(O)[C@@H]4CCCN4C(=O)[C@H](Cc4ccc(Cl)cc4)N3C2=O)C[C@@H]2c3cccc4[nH]cc(c34)C[C@H]21` [5'-debenzyl-5'-p-chlorobenzyl dihydroergotamine], the ED50 in data set [1] is 0.05 mg/kg. Further, the “adrenergic blockade In vitro IC50” value in data set [2] was 0.02 µg/mL. Further, the LD50 in data set [3] is 150 mg/kg.
The matching figures for `CN1C[C@H](C(=O)N[C@]2(C)O[C@@]3(O)[C@@H]4CCCN4C(=O)[C@H](Cc4ccc(Cl)cc4)N3C2=O)C=C2c3cccc4[nH]cc(c34)C[C@H]21` [5'-debenzyl-5'-p-chlorobenzyl ergotamine]: 0.1 mg/kg, 0.03 µg/mL and 100 mg/kg.
The matching figures for `CC(C)[C@@]1(NC(=O)[C@@H]2C[C@@H]3c4cccc5[nH]cc(c45)C[C@H]3N(C)C2)O[C@@]2(O)[C@@H]3CCCN3C(=O)[C@H](Cc3ccc(Cl)cc3)N2C1=O` [5'-debenzyl-5'-p-chlorobenzyl dihydroergocristine]: 0.02 mg/kg, 0.03 µg/mL and 190 mg/kg.
As for `CN1C[C@H](C(=O)N[C@]2(C)O[C@@]3(O)[C@@H]4CCCN4C(=O)[C@H](Cc4ccccc4)N3C2=O)C[C@@H]2c3cccc4[nH]cc(c34)C[C@H]21` [Dihydroergotamine, reference compound], the ED50 in data set [1] is 0.08 mg/kg. Besides, the “adrenergic blockade In vitro IC50” value in data set [2] was 0.02 µg/mL. Further, the 50% lethal dose (LD50) in data set [3] stood at 118 mg/kg.
